Test results as given in US4942159A, “Cephem compounds, their production and use” (Takeda Chemical Industries, Ltd., priority 1987, dated 1990).
Converted amounts (≈) assume the structure as drawn. “And” between values parts separate entries of the source, which are not always exact repeats. Identical values can stand only once.

Legend:
[1] = concentration levels in plasma upon rectal administration (suppository), by biological assay; assay type: in vivo, rat (Wistar; details: rectal suppository 50 mg/kg, fasted male Wistar rats
Description: Employing the compound (I) prepared in Example 1 mentioned below, the concentration levels in plasma (plasma levels of said compound) upon rectal administration were measured by the procedure described below.
Suppositories containing the product of Example 1 which were prepared according to Example 3 mentioned below were given (50 mg/kg in terms of said product) into the rectum of three male rats No. 1 to 3 (Wistar, body weight of 300 to 400 g) being fasted for 20 hours. The anuses were closed with an adhesive agent, and blood sample were taken from the tail veins after 0.5, 1, 2 and 4 hours to determine quantitatively the plasma levels of the product of Example 1 by means of the biological assay method. As the test microorganisms for the assay, Escherichia coli NIHJ and Proteus rettgeri ATCC 9250 were employed.
A 250 mg portion of finely divided 7β-[2-(5-amino-1,2,4-thiadiazol-3-yl)-(Z)-2-methoxyiminoacetamido]-3- [(6-aminoimidazo[1,2-b]pyridazinium-1-yl)methyl]-3-cephem-4-carboxylate and 4750 mg of Isocacao MO-5 (produced by Kao, Ltd. in Japan) were uniformly sitrred at 40° to 45° C. and cooled to 35° C. under stiring, followed by filling the mixture into a suppository container made of plastics and gradually cooling to obtain a suppository.

[2] = test system: Staphylococcus aureus 308 A-1; assay: MIC by agar dilution method (Trypticase soy agar), Staphylococcus aureus 308 A-1; assay type: cell-based; details: 308A1, 37° C. overnight
Description: (§1) The MIC of each test compound (the compounds obtained in Examples 1 and 2) was determined by the agar dilution method. Thus, 1.0 ml aliquots of serial dilutions of the test compound in water were poured into petri dishes, and 9.0 ml of Trypticase soy agar is added to each dish and stirred. A suspension (about 10^8 CFU/ml) of each test organism is smeared on each agar plate, which is then incubated at 37° C. overnight. The lowest concentration of the test compound which causes a complete growth inhibition of the test organism was determined and taken as the MIC (minimal inhibitory concentration) against the same organism.
(1) Staphylococcus aureus 308 A-1

[3] = test system: Staphylococcus aureus 1840; assay: MIC by agar dilution method (Trypticase soy agar), Staphylococcus aureus 1840; assay type: cell-based; details: (2) Staphylococcus aureus 1840, 37° C. overnight
Description: as §1
(2) Staphylococcus aureus 1840

[4] = test system: Pseudomonas aeruginosa P 9; assay: MIC by agar dilution method (Trypticase soy agar), Pseudomonas aeruginosa P 9; assay type: cell-based; details: P9, (4) Pseudomonas aeruginosa P 9, 37° C. overnight
Description: as §1
(4) Pseudomonas aeruginosa P 9

[5] = test system: Proteus morganii IFO 3168; assay: MIC by agar dilution method (Trypticase soy agar), Proteus morganii IFO 3168; assay type: cell-based; details: Morganella morganii, IFO3168, (3) Proteus morganii IFO 3168, 37° C. overnight
Description: as §1
(3) Proteus morganii IFO 3168

Row | Concentration levels in plasma, 0.5 hr ([1]; 0.5 hr, individual rats: No. 1, No. 2, No. 3, 30 min) | Concentration levels in plasma, 1 hr ([1]; 1 hr, individual rats: No. 1, No. 2, No. 3, 60 min) | Concentration levels in plasma, 2 hr ([1]; 2 hr, individual rats: No. 1, No. 2, No. 3, 120 min) | Concentration levels in plasma, 4 hr ([1]; 4 hr, individual rats: b116 = No. 1, b117 = No. 2 (No. 3 not tested), 240 min) [ng/mL] | concentration at 4 h ([1]; rat, plasma, 50 mg/kg, 4 hr, individual rats: b116 = No. 1, b117 = No. 2 (No. 3 not tested)) [ng/mL] | MIC [2] [µg/mL] | MIC [3] [µg/mL] | MIC [4] [µg/mL] | MIC [5] [µg/mL] | SMILES
1 | 130 ng/mL and 2400 ng/mL and 5700 ng/mL | 740 ng/mL and 4200 ng/mL and 5900 ng/mL | 1700 ng/mL and 4600 ng/mL and 2700 ng/mL | 2800 | 4300 | 0.39 (≈ 0.735 µM) | 0.78 (≈ 1.47 µM) | 0.39 (≈ 0.735 µM) | 0.2 (≈ 0.377 µM) | CO/N=C(\C(=O)N[C@@H]1C(=O)N2C(C(=O)[O-])=C(C[n+]3ccn4nc(N)ccc43)CS[C@H]12)c1nsc(N)n1 [Example 1, 7β-[2-(5-amino-1,2,4-thiadiazol-3-yl)-(Z)-2-methoxyiminoacetamide]-3-[(6-aminoimidazo[1,2-b]pyridazinium-1-yl)methyl]-3-cephem-4-carboxylate]
2 |  |  |  |  |  | 0.39 (≈ 0.716 µM) | 0.78 (≈ 1.43 µM) | 0.78 (≈ 1.43 µM) | 0.39 (≈ 0.716 µM) | CCO/N=C(\C(=O)N[C@@H]1C(=O)N2C(C(=O)[O-])=C(C[n+]3ccn4nc(N)ccc43)CS[C@H]12)c1nsc(N)n1 [Example 2, 7β-[2-(5-amino-1,2,4-thiadiazol-3-yl)-(Z)-2-ethoxyiminoacetamido]-3-[(6-aminoimidazo[1,2-b]pyridazinium-1-yl)methyl]-3-cephem-4-carboxylate]
